Test results: patent US12365675B2, “Stable heavy isotopes in amide functional groups and uses thereof” (RISEN (SUZHOU) PHARMA TECH CO., LTD., priority 2020, dated 2025)

How the values were obtained:
[1] = Pharmacokinetic studies in ICR mice, oral gavage; type: in vivo; settings: same dose
Procedure: ICR mice, 48, in 6 groups (n=8), were grouped randomly. Compound 1 (Alpelisib-^18O1) and Alpelisib were mixed and adjusted to 1:1 molar ratio in dosing solution (1.25 mg/mL); and the dosing solution was administered to the animals, via oral gavage, at a dose level of 2.5 mg/kg. Blood samples were collected (a group of 8 animals for each time point) at time points, after dosing, at 0.5, 1, 2, 4, 8, and 12 h. The blood samples were converted to plasma samples using standard techniques, and the latter samples were analyzed to determine the concentrations of Compound 1 and Alpelisib. In FIG. 2, lines labelled with -∘- and --Δ-- represent the plasma concentrations of Alpelisib-^18O1 and Alpelisib, respectively, following oral administration of the same dose of Alpelisib-^18O1 and Alpelisib to the animals.

[2] = M4 and M4-18O1 production in liver S9 culture media; type: in vitro ADME, monkey, human, mini pig, Wistar rat
Procedure: Stock solution (50 μL) containing equal molar concentration of Alpelisib and Alpelisib-^18O1 was diluted with pre-warmed (37° C., water bath) 0.1 M Tris-Acetate buffer; and the concentration of each compound in this working solution was 4.5 μM. In each incubation well were added the above working solution (50 μL) and a liver S9 solution (50 μL), mixed well. The sample was pre-incubated for 5 min, following by addition, to each well, of β-NADPH dosing solution (100 μL). The sample plate was incubated at 37° C., and analyzed at time points of 0, 15, 30, 60, and 240 min., in triplicates. Sample analysis: at a pre-set time-point, a stop solution (800 μL, acetonitrile) was added to each well; the sample was well-mixed (Vortex), and centrifuged at 12000 rpm for 5 minutes; the supernatant was transferred to analytical sample vial, and then analyzed with LC-MS/MS, for M4 and M4-^18O1. […] Liver S9 used in the experiment: (a) monkey liver S9, (b) pooled human S9, (c) mini pig liver S9, and (d) male Wistar rat Liver S9.

[3] = Pharmacokinetic studies in beagle dogs, single oral dose; type: in vivo; settings: for CLz/F: single oral dose 2.5 mg/kg each, co-administered, plasma
Procedure: Male and female beagle dogs (n=4; 2 males and 2 females) were used in the study. A single oral dose of Alpelisib (2.5 mg/kg) and Compound 1 (^18O1-Alpelisib) (2.5 mg/kg) were co-administered (at a total dose of 5 mg/kg) in DMSO and 0.5% carboxymethyl cellulose sodium (CMC-Na) aqueous solution (5:95, v/v). Blood samples were collected for analysis of Alpelisib and ^18O1-Alpelisib at 0.25, 0.5, 1, 1.5, 2, 3, 4, 6, 8, 10, 12 and 24 h. In FIG. 4, lines labelled with -∘- and -Δ- represent the plasma concentrations of Alpelisib-^18O1 and Alpelisib, respectively, following oral administration of the same dose of Alpelisib-^18O1 and Alpelisib to the animals.

[4] = Pharmacokinetic studies in Sprague Dawley (SD) rats, oral gavage; type: in vivo; settings: both doses tested (2.5 and 0.322 mg/kg), greatest effect at low dose
Procedure: (a) SD rats, six in a group (n=6), were grouped randomly. Compound 1 (Alpelisib-^18O1) and Alpelisib were mixed and adjusted to 1:1 molar ratio in dosing solution (1.25 mg/mL); and the dosing solution was administered to the animals, via oral gavage, at a dose level of 2.5 mg/kg. Blood samples were collected at pre-set time points following drug administration, at 0.167, 0.5, 1, 2, 3, 4, 6, 8, and 24 hours (h). The blood samples were converted to plasma samples using standard techniques, and the latter samples were analyzed to determine the concentrations of Compound 1 and Alpelisib. In FIG. 1a, lines labelled with -∘- and --Δ-- represent the plasma concentrations of Alpelisib-^18O1 and Alpelisib, respectively, following oral administration of the same molar dose of Alpelisib-^18O1 and Alpelisib to the animals.
(b) Similarly, Compound 1 (Alpelisib-^18O1) and Alpelisib were administered to the animals (SD rats, n=4), via oral gavage, at a low dose (dose level of 0.322 mg/kg). Blood samples were collected at pre-set time points following drug administration, at 0.167, 0.5, 1, 2, 4, 6, 8, 10 and 24 hours (h). The blood samples were converted to plasma samples using standard techniques, and the latter samples were analyzed to determine the concentrations of Compound 1 and Alpelisib. […]

plasma concentration compared with Alpelisib [1] | concentration of the metabolite M4-18O1 compared to that of M4 from alpelisib ([2]; liver S9 (monkey, pooled human, mini pig, male Wistar rat), 37° C., β-NADPH, 0-240 min, equimolar co-incubation) | metabolism compared to that of Alpelisib ([2]; liver S9 incubation, taken together with PK results) | plasma concentration compared with Alpelisib ([3]; oral, same dose) | CLz/F [3] | plasma concentration compared with Alpelisib [4] | SMILES
higher than for Alpelisib | decreased | reduced | higher than for Alpelisib | 0.38 L/h/kg | higher than for Alpelisib | Cc1nc(NC(=O)N2CCC[C@H]2C(N)=[18O])sc1-c1ccnc(C(C)(C)C(F)(F)F)c1 [Compound 1, N-(4-methyl-5-(2-(2,2,2-trifluoro-1,1-dimethylethyl)-4 pyridinyl)-2-thiazolyl)aminocarbonyl-L-prolin-^18O-amide]
– | – | – | – | 0.41 L/h/kg | – | Cc1nc(NC(=O)N2CCC[C@H]2C(N)=O)sc1-c1ccnc(C(C)(C)C(F)(F)F)c1 [Alpelisib, N-(4-methyl-5-(2-(2,2,2-trifluoro-1,1-dimethylethyl)-4-pyridinyl)-2-thiazolyl)aminocarbonyl-L-prolinamide, reference compound]
